Test results reported in US8853258B2, “C-linked hydroxamic acid derivatives useful as antibacterial agents” (Pfizer Inc., priority 2009, dated 2014).
In brackets after ≈: the same amount, converted by molar mass. Like-named read-outs stand apart in the source and are kept apart here.

What was measured:
[1] = test system: Acinetobacter baumanii/haemolyticus: Multidrug-resistant clinical isolate (AB-3167); assay: MIC determination (CLSI), AB-3167; type: cell-based; conditions: for MIC: Acinetobacter baumannii
Procedure, shortened: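 Multidrug-resistant clinical isolate AB-3167 (A. baumannii/haemolyticus) tested for minimum inhibitory concentration following CLSI dilution susceptibility standards M7-A7 and M100-S18.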

[2] = test system: Klebsiella pneumoniae: Ciprofloxacin-resistant isolate, ESBL, clinical isolate (KP-3700); assay: MIC determination (CLSI), KP-3700; type: cell-based
Procedure, shortened: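 MIC measured by broth dilution according to CLSI M7-A7 and M100-S18 standards. Test organism was a ciprofloxacin-resistant, ESBL-expressing clinical isolate.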

[3] = test system: Escherichia coli EC-1: VOGEL, mouse virulent; assay: MIC determination (CLSI), EC-1; type: cell-based; conditions: for MIC: Escherichia coli
Procedure, shortened: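 E. coli Vogel, a mouse-virulent strain (EC-1), was tested. MICs were set by dilution susceptibility testing per CLSI standards M7-A7/M100-S18.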

[4] = test system: Pseudomonas aeruginosa UI-18: Wild-type (PA-7); assay: MIC determination (CLSI), PA-7; type: cell-based; conditions: for MIC: Pseudomonas aeruginosa
Procedure, shortened: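 MIC by dilution method per CLSI M7-A7 and M100-S18 guidelines. Strain: wild-type Pseudomonas aeruginosa UI-18.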

[5] = target: Pseudomonas aeruginosa LpxC enzyme (Pseudomonas aeruginosa (strain ATCC 15692 / DSM 22644 / CIP 104116 / JCM 14847 / LMG 12228 / 1C / PRS 101 / PAO1), UniProt P47205); assay: IC50 Assay, LpxC Enzyme from P. aeruginosa (PA LpxC Enzyme IC50); type: biochemical
Procedure, shortened: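 Reaction run 1 h then stopped with 1N HCl. Conversion measured by RapidFire high-throughput mass spectrometry. IC50 derived from percent conversion relative to a no-enzyme control.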

[6] = Acinetobacter baumanii/haemolyticus AB-3167
[7] = Pseudomonas aeruginosa UI-18 (PA-7)
[8] = P. aeruginosa LpxC enzyme, read-out: PA LpxC enzyeme IC50
[9] = Acinetobacter baumanii/haemolyticus multidrug-resistant clinical isolate AB-3167
[10] = Escherichia coli EC-1 VOGEL, mouse virulent
[11] = Pseudomonas aeruginosa UI-18 wild-type PA-7
[12] = Table 3, read-out: PA LpxC enzyeme IC^50

Structure (SMILES)	KP-3700 MIC [2]	IC50 [5, 8] [nM]	AB-3167 MIC [1, 9]	EC-1 MIC [3, 10]	PA-7 MIC [4, 11] [mg/L]	other results
CC(CCc1ccc(-c2ccc(N)nc2)c(F)c1)(C(=O)NO)S(C)(=O)=O (stereo not drawn) [Example 206]	≧64 mg/L	23.5				AB-3167 MIC [1, 6]: ≧64 mg/L; EC-1 MIC ([3]; Escherichia coli EC-1): ≧64 mg/L; PA-7 MIC [4, 7]: 16 mg/L
CC(=O)c1ccc(-c2ccc(CCC(C)(C(=O)NO)S(C)(=O)=O)cn2)cc1 (stereo not drawn) [Example 133]	≧64 mg/L	0.985	≧64 mg/L	16 mg/L	16	
CC(C)Cc1ccc(-c2ccc(CCC(C)(C(=O)NO)S(C)(=O)=O)cc2)cc1 (stereo not drawn) [Example 63]	4 mg/L	0.356	8 mg/L	2 mg/L	16	
CC(CCc1ccc(-c2cc(F)c(C#N)c(F)c2)cc1)(C(=O)NO)S(C)(=O)=O (stereo not drawn) [Example 127]	8 mg/L	0.15	32 mg/L	1 mg/L	2	
CC(=O)c1ccc(-c2ccc(CC[C@](C)(C(=O)NO)S(C)(=O)=O)cc2)nc1 [Example 189]	16 mg/L	0.711	≧64 mg/L	16 mg/L	4	
CC(CCc1ccc(OCc2ccc(F)cc2C#N)cc1)(C(=O)NO)S(C)(=O)=O (stereo not drawn) [Example 284, 4-{4-[(2-cyano-4-fluorobenzyl)oxy]phenyl}-N-hydroxy-2-methyl-2-(methylsulfonyl)butanamide]	≧64 mg/L					MIC ([1]; Table 3, read-out: AB-3167 MIC): ≥ 64 µg/mL; MIC ([3]; read-out: EC-1 MIC): 32 µg/mL (≈ 76.1 µM); MIC ([4]; Table 3, read-out: PA-7 MIC): ≥ 64 µg/mL; IC50 [5, 12]: 5.36 nM
CC(CCc1ccc(-c2ccc(OCCO)cc2)cc1)(C(=O)NO)S(C)(=O)=O (stereo not drawn) [Example 113]	8 mg/L	0.148	≧64 mg/L	2 mg/L	1	
CC(CCc1ccc(COc2cccc(F)c2)cc1)(C(=O)NO)S(C)(=O)=O (stereo not drawn) [Example 229]	32 mg/L	3.24				AB-3167 MIC [1, 6]: 16 mg/L; EC-1 MIC ([3]; Escherichia coli EC-1): 8 mg/L; PA-7 MIC [4, 7]: 8 mg/L
Cc1nncn1-c1ccc(OCCOc2ccc(CCC(C)(C(=O)NO)S(C)(=O)=O)cc2)cc1 (stereo not drawn) [Example 290, N-hydroxy-2-methyl-2-(methylsulfonyl)-4-(4-{2-[4-(3-methyl-4H-1,2,4-triazol-4-yl)phenoxy]ethoxy}phenyl)butanamide]	32 mg/L					MIC ([1]; Table 3, read-out: AB-3167 MIC): ≥ 64 µg/mL; MIC ([3]; read-out: EC-1 MIC): 8 µg/mL (≈ 16.4 µM); MIC ([4]; Table 3, read-out: PA-7 MIC): ≥ 64 µg/mL; IC50 [5, 12]: 3.56 nM
CC(CCc1ccc(C2=CCCC2)cc1)(C(=O)NO)S(C)(=O)=O (stereo not drawn) [Example 227]	≧64 mg/L	11.4				AB-3167 MIC [1, 6]: ≧64 mg/L; EC-1 MIC ([3]; Escherichia coli EC-1): ≧64 mg/L; PA-7 MIC [4, 7]: 16 mg/L
CC(CCc1ccc(C2=CCCCCC2)cc1)(C(=O)NO)S(C)(=O)=O (stereo not drawn) [Example 13, 4-(4-Cyclohept-1-en-1-ylphenyl)-N-hydroxy-2-methyl-2-(methylsulfonyl)butanamide]	4 mg/L					MIC ([1]; Table 1, MIC, read-out: AB-3167 (MIC)): 0.5 µg/mL (≈ 1.37 µM); MIC ([3]; read-out: EC-1: (MIC)): 2 µg/mL (≈ 5.47 µM); MIC ([4]; Table 1, MIC, read-out: PA-7 (MIC)): 1 µg/mL (≈ 2.74 µM); IC50 ([5]; Table 1, read-out: PA LpxC enzyeme IC50): 0.29 nM
C[C@@](CCc1ccc(-c2cccnc2)cc1)(C(=O)NO)S(C)(=O)=O [Example 198]	≧64 mg/L	3.84	≧64 mg/L	≧64 mg/L	8	
CC(CCc1ccc(OCc2ccc(S(C)(=O)=O)cc2)cc1)(C(=O)NO)S(C)(=O)=O (stereo not drawn) [Example 309, N-hydroxy-2-methyl-2-(methylsulfonyl)-4-(4-{[4-(methylsulfonyl)benzyl]oxy}phenyl)butanamide]	16 mg/L					MIC ([1]; Table 3, read-out: AB-3167 MIC): ≥ 64 µg/mL; MIC ([3]; read-out: EC-1 MIC): 8 µg/mL (≈ 17.6 µM); MIC ([4]; Table 3, read-out: PA-7 MIC): 8 µg/mL (≈ 17.6 µM); IC50 [5, 12]: 1.21 nM
C[C@@](CCc1ccc(-c2ccc(C(=O)N3CCC(O)CC3)cc2)cc1)(C(=O)NO)S(C)(=O)=O [Example 192]	≧64 mg/L	3.39	≧64 mg/L	≧64 mg/L	16	
CC(CCc1ccc(OCc2nc(C3CCC3)no2)cc1)(C(=O)NO)S(C)(=O)=O (stereo not drawn) [Example 300, 4-{4-[(3-cyclobutyl-1,2,4-oxadiazol-5-yl)methoxy]phenyl}-N-hydroxy-2-methyl-2-(methylsulfonyl)butanamide]	32 mg/L					MIC ([1]; Table 3, read-out: AB-3167 MIC): ≥ 64 µg/mL; MIC ([3]; read-out: EC-1 MIC): 16 µg/mL (≈ 37.8 µM); MIC ([4]; Table 3, read-out: PA-7 MIC): 32 µg/mL (≈ 75.6 µM); IC50 [5, 12]: 7.56 nM
CC(CCc1ccc(OCc2nc(-c3ccccc3)no2)cc1)(C(=O)NO)S(C)(=O)=O (stereo not drawn) [Example 308, N-hydroxy-2-methyl-2-(methylsulfonyl)-4-{4-[(3-phenyl-1,2,4-oxadiazol-5-yl)methoxy]phenyl}butanamide]	16 mg/L					MIC ([1]; Table 3, read-out: AB-3167 MIC): ≥ 64 µg/mL; MIC ([3]; read-out: EC-1 MIC): 4 µg/mL (≈ 8.98 µM); MIC ([4]; Table 3, read-out: PA-7 MIC): 32 µg/mL (≈ 71.8 µM); IC50 [5, 12]: 2.56 nM
CSc1cccc(-c2ccc(CCC(C)(C(=O)NO)S(C)(=O)=O)cc2)c1 (stereo not drawn) [Example 56]	4 mg/L	0.417	8 mg/L	2 mg/L	2	
C[C@@](CCc1ccc(-c2ccc(CC(=O)N3CCC(O)CC3)cc2)cc1)(C(=O)NO)S(C)(=O)=O [Example 191]	≧64 mg/L	2.63	≧64 mg/L	≧64 mg/L	16	
